Key:
[1] = target: skeletal myofibrils (myosin ATPase); assay: Skeletal Myofibril ATPase Assay; type: biochemical
Summary of the method: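 Rates of NADH loss (A340, kinetic read over 45 min) report ADP generation by myofibrillar myosin, coupled through pyruvate kinase and lactate dehydrogenase; pCa buffer at pH 7.0. IC50 fitted by 4-parameter logistic after normalizing to 1% DMSO controls; cardiac myofibrils served for selectivity.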

[2] = target: T1, cardiac myofibrils (myosin ATPase); assay: Cardiac Myofibril ATPase Assay (counter screen); type: biochemical; conditions: myofibrils 1.0 mg/mL, KCl omitted
T1 construct: frozen myofibril pellets obtained from cardiac tissue; from tissue
T1 sequence (P12883 whole entry): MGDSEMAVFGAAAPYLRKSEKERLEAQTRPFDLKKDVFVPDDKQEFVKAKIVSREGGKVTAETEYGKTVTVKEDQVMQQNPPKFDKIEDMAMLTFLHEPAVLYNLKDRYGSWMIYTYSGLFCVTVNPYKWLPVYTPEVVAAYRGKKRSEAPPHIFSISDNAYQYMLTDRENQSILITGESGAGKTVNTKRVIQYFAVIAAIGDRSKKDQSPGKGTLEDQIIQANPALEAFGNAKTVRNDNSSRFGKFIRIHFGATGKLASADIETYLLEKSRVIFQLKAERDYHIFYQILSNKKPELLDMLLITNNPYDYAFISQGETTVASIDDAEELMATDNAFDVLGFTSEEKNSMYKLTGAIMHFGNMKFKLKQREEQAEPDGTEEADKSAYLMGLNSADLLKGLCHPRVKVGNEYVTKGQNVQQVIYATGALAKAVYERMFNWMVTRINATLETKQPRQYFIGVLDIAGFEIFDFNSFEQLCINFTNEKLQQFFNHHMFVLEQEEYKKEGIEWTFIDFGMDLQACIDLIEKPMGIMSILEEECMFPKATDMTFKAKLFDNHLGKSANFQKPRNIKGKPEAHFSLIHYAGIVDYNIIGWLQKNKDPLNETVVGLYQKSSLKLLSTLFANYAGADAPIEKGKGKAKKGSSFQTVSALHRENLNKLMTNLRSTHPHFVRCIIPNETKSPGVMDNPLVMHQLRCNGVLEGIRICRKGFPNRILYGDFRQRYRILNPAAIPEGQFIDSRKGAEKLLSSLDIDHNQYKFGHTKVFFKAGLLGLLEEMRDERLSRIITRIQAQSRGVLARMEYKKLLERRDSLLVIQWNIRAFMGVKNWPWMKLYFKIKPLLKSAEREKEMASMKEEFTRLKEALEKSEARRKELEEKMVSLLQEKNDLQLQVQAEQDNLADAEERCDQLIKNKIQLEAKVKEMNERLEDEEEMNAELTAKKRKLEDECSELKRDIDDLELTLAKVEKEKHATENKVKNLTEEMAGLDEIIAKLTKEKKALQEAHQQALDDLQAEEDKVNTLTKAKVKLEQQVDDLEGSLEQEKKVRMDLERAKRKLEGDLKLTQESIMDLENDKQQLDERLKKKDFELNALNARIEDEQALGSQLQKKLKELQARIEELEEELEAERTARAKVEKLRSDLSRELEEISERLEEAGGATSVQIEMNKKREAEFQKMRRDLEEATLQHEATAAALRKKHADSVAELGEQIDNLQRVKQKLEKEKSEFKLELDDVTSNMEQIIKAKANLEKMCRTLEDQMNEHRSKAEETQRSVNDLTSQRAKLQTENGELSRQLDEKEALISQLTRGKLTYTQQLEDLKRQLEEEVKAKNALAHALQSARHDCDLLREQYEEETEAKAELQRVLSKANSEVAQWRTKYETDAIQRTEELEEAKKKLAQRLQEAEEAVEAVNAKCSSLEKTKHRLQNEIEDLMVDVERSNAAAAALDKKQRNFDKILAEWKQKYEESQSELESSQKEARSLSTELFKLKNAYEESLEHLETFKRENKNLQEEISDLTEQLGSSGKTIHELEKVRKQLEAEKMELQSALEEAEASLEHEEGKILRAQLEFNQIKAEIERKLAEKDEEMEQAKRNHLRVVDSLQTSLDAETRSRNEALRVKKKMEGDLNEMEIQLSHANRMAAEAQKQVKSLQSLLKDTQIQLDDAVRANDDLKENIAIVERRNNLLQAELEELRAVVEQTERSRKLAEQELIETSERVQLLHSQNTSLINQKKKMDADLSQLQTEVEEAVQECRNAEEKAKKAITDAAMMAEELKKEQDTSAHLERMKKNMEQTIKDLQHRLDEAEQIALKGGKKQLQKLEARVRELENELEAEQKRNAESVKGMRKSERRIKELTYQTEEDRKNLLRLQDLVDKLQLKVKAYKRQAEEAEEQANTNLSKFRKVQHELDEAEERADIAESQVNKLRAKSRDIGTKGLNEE
T1 sequence (P08590 whole entry partner): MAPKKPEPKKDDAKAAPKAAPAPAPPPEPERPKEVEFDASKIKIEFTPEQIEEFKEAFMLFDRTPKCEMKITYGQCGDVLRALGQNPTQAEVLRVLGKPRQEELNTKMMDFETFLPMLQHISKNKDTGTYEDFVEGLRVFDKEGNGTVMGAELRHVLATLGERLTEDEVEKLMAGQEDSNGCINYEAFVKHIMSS
T1 sequence (P10916 whole entry partner): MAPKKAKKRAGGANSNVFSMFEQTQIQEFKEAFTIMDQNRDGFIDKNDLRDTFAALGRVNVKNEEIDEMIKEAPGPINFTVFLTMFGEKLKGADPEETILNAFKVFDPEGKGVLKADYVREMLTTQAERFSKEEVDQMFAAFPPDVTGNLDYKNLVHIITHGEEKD
Summary of the method: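 Myosin ATPase rate followed via NADH disappearance at 340 nm, coupled through pyruvate kinase and lactate dehydrogenase, using cardiac myofibril pellets (final 1.0 mg/mL) without KCl. IC50 values reflect rate reduction compared with vehicle-treated wells.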

Structure (SMILES)	IC50 ([1]; Table 4C) [µM]	IC50 ([2]; Table 5C) [µM]	other results
COc1ccc(-c2ccc(=O)n(CC(=O)NCc3ccccc3C(F)(F)F)n2)cc1 [IIIa-11, 2-(3-(4-methoxyphenyl)-6-oxopyridazin-1(6H)-yl)-N-(2-(trifluoromethyl)benzyl)acetamide]	< 10	> 100	–
CCNC(=O)Cn1nc(-c2ccc(OC)cc2)ccc1=O [IIIa-3, N-ethyl-2-(3-(4-methoxyphenyl)-6-oxopyridazin-1(6H)-yl)acetamide]	< 10	> 100	–
CCNC(=O)Cn1nc(-c2ccc(N(C)C3CCC3)nc2)ccc1=O [Compound I-61, 2-(3-(6-(cyclobutyl(methyl)amino)pyridin-3-yl)-6-oxopyridazin-1(6H)-yl)-N-ethylacetamide]	–	–	IC50 ([1]; Table 4A): < 10 µM; IC50 ([2]; Table 5A): 10 to 100 µM
O=C(Cn1nc(-c2cnc(OCCOC(F)(F)F)nc2)ccc1=O)NC1CCC1 [Compound I-72, N-cyclobutyl-2-(6-oxo-3-(2-(2-(trifluoromethoxy)ethoxy)pyrimidin-5-yl)pyridazin-1(6H)-yl)acetamide]	–	–	IC50 ([1]; Table 4A): < 10 µM; IC50 ([2]; Table 5A): > 100 µM
CCNC(=O)Cn1nc(-c2cnc(OCC3CC(F)(F)C3)nc2)ccc1=O [Compound I-77, 2-(3-(2-((3,3-difluorocyclobutyl)methoxy)pyrimidin-5-yl)-6-oxopyridazin-1(6H)-yl)-N-ethylacetamide]	–	–	IC50 ([1]; Table 4A): 10 to 100 µM; IC50 ([2]; Table 5A): > 100 µM
O=C(Cn1nc(-c2ccc(OC(F)F)nc2)ccc1=O)NC1CCC1 [Compound I-4, N-cyclobutyl-2-(3-(6-(difluoromethoxy)pyridin-3-yl)-6-oxopyridazin-1(6H)-yl)acetamide]	–	–	IC50 ([1]; Table 4A): < 10 µM; IC50 ([2]; Table 5A): > 100 µM
CCNC(=O)Cn1nc(-c2ccc(N(C)C34CC(C3)C4)nc2)ccc1=O [Compound I-64, 2-(3-(6-(bicyclo[1.1.1]pentan-1-yl(methyl)amino)pyridin-3-yl)-6-oxopyridazin-1(6H)-yl)-N-ethylacetamide]	–	–	IC50 ([1]; Table 4A): < 10 µM; IC50 ([2]; Table 5A): 10 to 100 µM
CCC(C)(C)NC(=O)Cn1nc(-c2ccc(OC(F)F)nc2)ccc1=O [Compound I-20, 2-(3-(6-(difluoromethoxy)pyridin-3-yl)-6-oxopyridazin-1(6H)-yl)-N-(tert-pentyl)acetamide]	–	–	IC50 ([1]; Table 4A): 10 to 100 µM; IC50 ([2]; Table 5A): > 100 µM
COc1ccc(-c2ccc(=O)n(CC(=O)NCc3cccc(Cl)c3)n2)cc1 [IIIa-8, N-(3-chlorobenzyl)-2-(3-(4-methoxyphenyl)-6-oxopyridazin-1(6H)-yl)acetamide]	< 10	> 100	–
CCNC(=O)Cn1nc(-c2ccc(NC(C)(C)C)nc2)ccc1=O [Compound I-53, 2-(3-(6-(tert-butylamino)pyridin-3-yl)-6-oxopyridazin-1(6H)-yl)-N-ethylacetamide]	–	–	IC50 ([1]; Table 4A): < 10 µM; IC50 ([2]; Table 5A): > 100 µM
CCNC(=O)Cn1nc(-c2ccc(OCCC(F)(F)F)nc2)ccc1=O [Compound I-10, N-ethyl-2-(6-oxo-3-(6-(3,3,3-trifluoropropoxy)pyridin-3-yl)pyridazin-1(6H)-yl)acetamide]	–	–	IC50 ([1]; Table 4A): 10 to 100 µM; IC50 ([2]; Table 5A): > 100 µM
CCNC(=O)Cn1nc(-c2ccc(OC(F)(F)F)cc2)ccc1=O [II-5, N-ethyl-2-(6-oxo-3-(4-(trifluoromethoxy)phenyl)pyridazin-1(6H)-yl)acetamide]	–	–	IC50 ([1]; Table 4B): < 10 µM; IC50 ([2]; Table 5B): > 100 µM
CCOc1ccc(-c2ccc(=O)n(CC(=O)NCc3ccccc3Cl)n2)cc1 [IIIa-1, N-(2-chlorobenzyl)-2-(3-(4-ethoxyphenyl)-6-oxopyridazin-1(6H)-yl)acetamide]	< 10	> 100	–

Further lines, with some results ahead:

IC50 ([1]; Table 4C) [µM]	IC50 ([2]; Table 5C) [µM]	Structure (SMILES)	other results
10 to 100	> 100	C[C@@H](NC(=O)Cn1nc(-c2ccc3c(c2)OCCCO3)ccc1=O)c1ccc(F)cc1 [IIIb-26, (R)-2-(3-(3,4-dihydro-2H-benzo[b][1,4]dioxepin-7-yl)-6-oxopyridazin-1(6H)-yl)-N-(1-(4-fluorophenyl)ethyl)acetamide]	–
10 to 100	> 100	COc1ccc(-c2ccc(=O)n(CC(=O)NCc3ccc(Cl)cc3)n2)cc1 [IIIb-31, N-(4-chlorobenzyl)-2-(3-(4-methoxyphenyl)-6-oxopyridazin-1(6H)-yl)acetamide]	–
> 100	> 100	O=C(Cn1nc(-c2ccccc2)ccc1=O)NC1CC1 [IIIc-65, N-cyclopropyl-2-(6-oxo-3-phenylpyridazin-1(6H)-yl)acetamide]	–
< 10	> 100	COc1ccc(-c2ccc(=O)n(CC(=O)NCc3ccccc3Cl)n2)cc1 [IIIb-1, N-(2-chlorobenzyl)-2-(3-(4-methoxyphenyl)-6-oxopyridazin-1(6H)-yl)acetamide]	–
10 to 100	> 100	COc1ccc(-c2ccc(=O)n(CC(=O)N(C)c3ccccc3)n2)cc1 [IIIc-7, 2-(3-(4-methoxyphenyl)-6-oxopyridazin-1(6H)-yl)-N-methyl-N-phenylacetamide]	–
> 100	> 100	COc1ccc(-c2ccc(=O)n(CC(=O)NCc3nccn3C)n2)cc1 [IIIa-33, 2-(3-(4-methoxyphenyl)-6-oxopyridazin-1(6H)-yl)-N-((1-methyl-1H-imidazol-2-yl)methyl) acetamide]	–
< 10	> 100	COc1ccc(-c2ccc(=O)n(CC(=O)NCc3ccccc3Cl)n2)c(F)c1 [IIIa-13, N-(2-chlorobenzyl)-2-(3-(2-fluoro-4-methoxyphenyl)-6-oxopyridazin-1(6H)-yl)acetamide]	–
10 to 100	> 100	O=C(Cn1nc(-c2ccccc2)ccc1=O)Nc1ccc(Cl)cc1Cl [IIIc-54, N-(2,4-dichlorophenyl)-2-(6-oxo-3-phenylpyridazin-1(6H)-yl)acetamide]	–
< 10	10 to 100	COc1ccc(-c2ccc(=O)n(CC(=O)Nc3cccc4c3ccn4C)n2)cc1 [IIIb-4, 2-(3-(4-methoxyphenyl)-6-oxopyridazin-1(6H)-yl)-N-(1-methyl-1H-indol-4-yl)acetamide]	–
< 10	> 100	O=C(Cn1nc(-c2ccccc2)ccc1=O)NCCC1=CCCCC1 [IIIc-48, N-(2-(cyclohex-1-en-1-yl)ethyl)-2-(6-oxo-3-phenylpyridazin-1(6H)-yl)acetamide]	–
> 100	> 100	COCCNC(=O)Cn1nc(-c2ccc(OC)cc2)ccc1=O [IIIb-47, N-(2-methoxyethyl)-2-(3-(4-methoxyphenyl)-6-oxopyridazin-1(6H)-yl)acetamide]	–
> 100	> 100	COc1ccc(-c2ccc(=O)n(CC(=O)Nc3cccc(C)n3)n2)cc1 [IIIb-59, 2-(3-(4-methoxyphenyl)-6-oxopyridazin-1(6H)-yl)-N-(6-methylpyridin-2-yl)acetamide]	–
10 to 100	> 100	O=C(Cn1nc(-c2ccccc2)ccc1=O)NCc1ccccc1Cl [IIIc-47, N-(2-chlorobenzyl)-2-(6-oxo-3-phenylpyridazin-1(6H)-yl)acetamide]	–
< 10	> 100	COc1ccc(-c2ccc(=O)n(CC(=O)Nc3cccc4[nH]ccc34)n2)c(F)c1 [IIIb-2, 2-(3-(2-fluoro-4-methoxyphenyl)-6-oxopyridazin-1(6H)-yl)-N-(1H-indol-4-yl)acetamide]	–
> 100	> 100	COc1ccc(-c2ccc(=O)n(CC(=O)NCc3ccco3)n2)cc1 [IIIb-53, N-(furan-2-ylmethyl)-2-(3-(4-methoxyphenyl)-6-oxopyridazin-1(6H)-yl)acetamide]	–

Reference: patent US12415794B2 (Edgewise Therapeutics, Inc., priority 2018, dated 2025)
